The subject of one test is DMBA-induced rat mammary adenocarcinomas. As to the kind of experiment: Anti-tumour effect in vivo against DMBA-induced rat mammary adenocarcinomas. Conditions: 3 mg/kg, daily for five weeks, female rats; control 3. As for the experimental part: The anti-tumour effect was investigated in vivo against DMBA-induced rat mammary adenocarcinomas by the following method. Mammary adenocarcinoma was induced with DMBA in 50±2 days old female rats. Treatment with the compound under test was started after palpable tumours had appeared. Tumour size and amount of tumours were evaluated once a week. Tumour sizes in the control group, treated with solvent, were compared with the test groups. Daily administration schedule was employed for five weeks and animals were sacrificed. The change in tumour sizes was evaluated. Results were evaluated as changes in the sizes of tumours and divided into three groups, namely increasing, stable and decreasing sizes of tumours.
Turning to `c1ccc(C(CCCc2c[nH]cn2)c2ccccc2)cc1` [Compound 9a, 4-(4,4-diphenylbutyl)-1H-imidazole], the “Number of tumours decreasing” value is given as 2.

Staying with this test, now noted: 3 mg/kg, daily for five weeks, female rats; control 21.
`c1ccc(C(CCCc2c[nH]cn2)c2ccccc2)cc1` [Compound 9a, 4-(4,4-diphenylbutyl)-1H-imidazole]: the “Number of tumours stable” value stood at 14.

The same test, now with this note: 3 mg/kg, daily for five weeks, female rats; control 42.
Regarding `c1ccc(C(CCCc2c[nH]cn2)c2ccccc2)cc1` [Compound 9a, 4-(4,4-diphenylbutyl)-1H-imidazole], the “Number of tumours increasing” value is listed as 37.

Staying with this test, now noted: 30 mg/kg, daily for five weeks, female rats; control 3.
For `c1ccc(C(CCCc2c[nH]cn2)c2ccccc2)cc1` [Compound 9a, 4-(4,4-diphenylbutyl)-1H-imidazole], the “Number of tumours decreasing” value is recorded as 21.

The test is the same for the next values; noted with them: 30 mg/kg, daily for five weeks, female rats; control 21.
For the compound `c1ccc(C(CCCc2c[nH]cn2)c2ccccc2)cc1` [Compound 9a, 4-(4,4-diphenylbutyl)-1H-imidazole], the “Number of tumours stable” value is 3.

The test is the same for the next values; noted with them: 30 mg/kg, daily for five weeks, female rats; control 42.
As for `c1ccc(C(CCCc2c[nH]cn2)c2ccccc2)cc1` [Compound 9a, 4-(4,4-diphenylbutyl)-1H-imidazole], the “Number of tumours increasing” value amounted to 15.

The next test deals with desmolase (CSCC). As to the kind of experiment: Cholesterol side chain cleavage (CSCC, desmolase) inhibition, mitochondrial fraction from human placenta or bovine adrenals. The class given is biochemical. The settings on record: substrate 5 μM, 30 min, 37° C., read-out: IC-50 CSCC (desmolase).
For the compound `Cc1ccc(C(CCCc2c[nH]cn2)c2ccccc2)cc1` (centres unmarked) [Compound 1a, 4-[4-(4-methylphenyl)-4-phenylbutyl]-1H-imidazole], the IC50 was 96 µM.

Turning to `Fc1ccc(C(CCCCc2ccccc2)c2c[nH]cn2)cc1` (centres unmarked) [Compound 1c, 4-[1-(4-fluorophenyl)-5-phenylpentyl]-1H-imidazole], the IC50 amounted to 19 µM.

For `Cc1ccc(C(CCCc2cncn2Cc2ccccc2)c2ccccc2)cc1` (centres unmarked) [Compound 2a, 1-benzyl-5-[4-(4-methylphenyl)-4-phenylbutyl]-1H-imidazole], the IC50 was 50 µM.

On to `Cc1ccccc1CCCCC(c1ccc(F)cc1)c1c[nH]cn1` (centres unmarked) [Compound 2c, 4-[1-(4-fluorophenyl)-5-(2-methylphenyl)pentyl]-1H-imidazole], for which the IC50 is 16 µM.

As for `Cc1cccc(C(CCCc2cncn2Cc2ccccc2)c2ccccc2)c1` (centres unmarked) [Compound 3a, 1-benzyl-5-[4-(3-methylphenyl)-4-phenylbutyl]-1H-imidazole], the IC50 was 38 µM.

As to `Cc1cccc(CCCCC(c2ccc(F)cc2)c2c[nH]cn2)c1` (centres unmarked) [Compound 3c, 4-[1-(4-fluorophenyl)-5-(3-methylphenyl)pentyl]-1H-imidazole], the IC50 came out at 57 µM.

`Cc1cccc(C(CCCc2c[nH]cn2)c2ccccc2)c1` (centres unmarked) [Compound 4a, 4-(4-(3-methylphenyl)-4-phenylbutyl]-1H-imidazole]: the IC50 worked out at 7.5 µM.

Turning to `Cc1ccc(CCCCC(c2ccc(F)cc2)c2c[nH]cn2)cc1` (centres unmarked) [Compound 4c, 4-[1-(4-fluorophenyl)-5-(4-methylphenyl)pentyl]-1H-imidazole], the IC50 was 170 µM.

Regarding `Cc1ccccc1C(CCCc1c[nH]cn1)c1ccccc1` (centres unmarked) [Compound 5a, 4-[4-(2-methylphenyl)-4-phenylbutyl]-1H-imidazole], the IC50 turned out to be 29 µM.

With `Cc1cc(C)cc(CCCCC(c2ccc(F)cc2)c2c[nH]cn2)c1` (centres unmarked) [Compound 5c, 4-[5-(3,5-dimethylphenyl)-1-(4-fluorophenyl)-pentyl]-1H-imidazole], the IC50 worked out at 80 µM.

In the case of `Cc1ccccc1C(CCCc1cncn1Cc1ccccc1)c1ccccc1` (centres unmarked) [Compound 6a, 1-benzyl-5-[4-(2-methylphenyl)-4-phenylbutyl]-1H-imidazole], the IC50 stood at 32 µM.

Turning to `c1ccc(CCC(c2ccccc2)c2c[nH]cn2)cc1` (centres unmarked) [Compound 7c, 4-(1,3-diphenylpropyl)-1H-imidazole], the IC50 turned out to be 7.5 µM.

Consider `c1ccc(CC(CCCc2c[nH]cn2)c2ccccc2)cc1` (centres unmarked) [Compound 8a, 4-(4,5-diphenylpentyl)-1H-imidazole], for which the IC50 turned out to be 27 µM.

For `c1ccc(C(CCCc2c[nH]cn2)c2ccccc2)cc1` [Compound 9a, 4-(4,4-diphenylbutyl)-1H-imidazole], the IC50 was found to be 320 µM.

`Fc1ccc(C(CCc2ccccc2)c2c[nH]cn2)cc1` (centres unmarked) [Compound 9c, 4-[1-(4-fluorophenyl)-3-phenylpropyl]-1H-imidazole]: the IC50 is 22 µM.

On to `Fc1ccc(C(CCCc2ccccc2)c2c[nH]cn2)cc1` (centres unmarked) [Compound 10c, 4-[1-(4-fluorophenyl)-4-phenylbutyl]-1H-imidazole], for which the IC50 was 31 µM.

Consider `COc1ccc(C(CCCc2c[nH]cn2)c2ccccc2)cc1` (centres unmarked) [Compound 11a, 4-[4-(4-methoxyphenyl)-4-phenylbutyl]-1H-imidazole], for which the IC50 is 190 µM.

`COc1cccc(CCCCC(c2ccc(F)cc2)c2c[nH]cn2)c1` (centres unmarked) [Compound 11c, 4-[1-(4-fluorophenyl)-5-(3-methoxyphenyl)pentyl]-1H-imidazole]: the IC50 was 12 µM.

With `COc1ccc(C(CCCc2c[nH]cn2)c2ccc(OC)cc2)cc1` [Compound 12a, 4-[4,4-bis(4-methoxyphenyl)butyl]-1H-imidazole], the IC50 was 46 µM.

Regarding `COc1ccc(CCCCC(c2ccc(F)cc2)c2c[nH]cn2)cc1` (centres unmarked) [Compound 12c, 4-[1-(4-fluorophenyl)-5-(4-methoxyphenyl)pentyl]-1H-imidazole], the IC50 came to 22.5 µM.

As to `Cc1cccc(C(CCCc2c[nH]cn2)c2cccc(C)c2)c1` [Compound 13a, 4-[4,4-bis(3-methylphenyl)butyl]-1H-imidazole], the IC50 was 48 µM.

Regarding `Cc1cccc(C)c1CCCCC(c1ccc(F)cc1)c1c[nH]cn1` (centres unmarked) [Compound 13c, 4-[1-(4-fluorophenyl)-5-(2,6-dimethylphenyl)-pentyl]-1H-imidazole], the IC50 is 31 µM.

With `Cc1cc(C)cc(C(CCCc2c[nH]cn2)c2ccccc2)c1` (centres unmarked) [Compound 14a, 4-[4-(3,5-dimethylphenyl)-4-phenylbutyl]-1H-imidazole], the IC50 amounted to 65 µM.

In the case of `Fc1ccc(CCC(c2ccc(F)cc2)c2c[nH]cn2)cc1` (centres unmarked) [Compound 14c, 4-[1,3-bis(4-fluorophenyl)propyl]-1H-imidazole], the IC50 worked out at 22 µM.

With `Cc1ccc(C(CCCc2c[nH]cn2)c2ccccc2)cc1C` (centres unmarked) [Compound 15a, 4-[4-(3,4-dimethylphenyl)-4-phenylbutyl]-1H-imidazole], the IC50 was 39 µM.

In the case of `Fc1ccc(CCCC(c2ccc(F)cc2)c2c[nH]cn2)cc1` (centres unmarked) [Compound 15c, 4-[1,4-bis(4-fluorophenyl)butyl]-1H-imidazole], the IC50 came to 29 µM.

With `Cc1cccc(C(CCCc2c[nH]cn2)c2cc(C)cc(C)c2)c1` (centres unmarked) [Compound 16a, 4-[4-(3,5-dimethylphenyl)-4-(3-methylphenyl)butyl]-1H-imidazole], the IC50 was 95 µM.

Take `c1ccc(CCC(Cc2c[nH]cn2)c2ccccc2)cc1` (centres unmarked) [Compound 16c, 4-(2,4-diphenylbutyl)-1H-imidazole]: the IC50 stood at 12 µM.

With `Cc1ccc(C(CCCc2c[nH]cn2)c2ccc(C)cc2)cc1` [Compound 17a, 4-[4,4-bis(4-methylphenyl)butyl]-1H-imidazole], the IC50 turned out to be 110 µM.

With `Fc1ccc(C(CCc2ccccc2)Cc2c[nH]cn2)cc1` (centres unmarked) [Compound 17c, 4-[2-(4-fluorophenyl)-4-phenylbutyl]-1H-imidazole], the IC50 is 28 µM.

For `c1ccc(C(CCCCc2c[nH]cn2)c2ccccc2)cc1` [Compound 18a, 4-(5,5-diphenylpentyl)-1H-imidazole], the IC50 stood at 68 µM.

For `Fc1ccc(CCC(Cc2c[nH]cn2)c2ccc(F)cc2)cc1` (centres unmarked) [Compound 18c, 4-[2,4-bis(4-fluorophenyl)butyl]-1H-imidazole], the IC50 is 20 µM.

In the case of `c1ccc(C(CCCCCc2c[nH]cn2)c2ccccc2)cc1` [Compound 19a, 4-(6,6-diphenylhexyl)-1H-imidazole], the IC50 was determined as 61 µM.

As to `N#Cc1ccc(C(CCc2ccc(F)cc2)Cc2c[nH]cn2)cc1` (centres unmarked) [Compound 19c, 4-[2-(4-cyanophenyl)-4-(4-fluorophenyl)butyl]-1H-imidazole], the IC50 came to 6.6 µM.

On to `Fc1ccccc1C(CCCc1c[nH]cn1)c1ccccc1` (centres unmarked) [Compound 20a, 4-[4-(2-fluorophenyl)-4-phenylbutyl]-1H-imidazole], for which the IC50 stood at 38 µM.

In the case of `Fc1ccc(C(CCCc2c[nH]cn2)c2ccccc2)cc1` (centres unmarked) [Compound 21a, 4-[4-(4-fluorophenyl)-4-phenylbutyl]-1H-imidazole], the IC50 came out at 80 µM.

In the case of `C(=Cc1c[nH]cn1)CC(c1ccccc1)c1ccccc1` [Compound 22a, 4-(4,4-diphenyl-1-butenyl)-1H-imidazole], the IC50 turned out to be 165 µM.

With `Fc1ccc(C(CCCc2c[nH]cn2)c2ccc(F)cc2)cc1` [Compound 23a, 4-[4,4-bis(4-fluorophenyl)butyl]-1H-imidazole], the IC50 came to 175 µM.

As to `O=[N+]([O-])c1ccc(C(CCCc2c[nH]cn2)c2ccc([N+](=O)[O-])cc2)cc1` [Compound 24a, 4-[4,4-bis(4-nitrophenyl)butyl]-1H-imidazole], the IC50 is 37 µM.

Regarding `Nc1ccc(C(CCCc2c[nH]cn2)c2ccc(N)cc2)cc1` [Compound 25a, 4-[4,4-bis(4-aminophenyl)butyl]-1H-imidazole], the IC50 is 210 µM.

`CCc1ccc(C(CCCc2c[nH]cn2)c2ccccc2)cc1` (centres unmarked) [Compound 26a, 4-[4-(4-ethylphenyl)-4-phenylbutyl]-1H-imidazole]: the IC50 was determined as 65 µM.

These data come from patent US5439928A, “Aromatase inhibiting 4(5)-imidazoles” (Orion-yhtyma Oy, priority 1993, dated 1995).
